Measurements: PMC10327353 (Breast Cancer Research : BCR, 2023)

Legend:
[1] = system: BT474C1-Luci Mono1 SC xenograft; assay: SC (subcutaneous) BT474C1-Luci Mono1 xenograft model; assay type: in vivo, nude mice
Method: Tumor cell suspension at 5 × 10^6 were injected subcutaneously in a total volume of 0.2 ml (1:1 with ECM Gel) into each mouse. 17β-ESTRADIOL (90-day release, 0.36 mg/pellet) were implanted 24 hrs before cells were injected subcutaneously. Tumor nodules were measured in two dimensions with caliper and the tumor volume was calculated using the following formula: tumor volume = (length × width^2) × 0.5. Tumor-bearing mice were randomized into different treatment groups when the mean tumor volume reached around 150 mm^3.

P-gp-BCRP = P-gp-BCRP efflux ratio, cellular transport assay; assay type: in vitro ADME, human
Method: A discussion of the structure–activity relationship (SAR) cumulated in the design of DZD1516 (Fig. 1) is as follows. The HER2 inhibitory potency screening for SAR development was performed using HER2 and EGFR enzymatic assays. The cellular activity was evaluated in HER2+ cell line BT474C1 by measuring pHER2 and antiproliferation activities. Cellular transport assays measuring the permeability and efflux ratio of compounds in cells expressing human P-gp (MDR1) and BCRP were used to provide essential information for assessing their BBB penetration potential.

Fms(h) = target: T1, Fms(h) (Homo sapiens, UniProt P07333); assay: Kinase panel assay (Eurofins); assay type: biochemical
T1 construct: purchased Eurofins UK Ltd (Dundee, UK)
T1 sequence (P07333 20-972): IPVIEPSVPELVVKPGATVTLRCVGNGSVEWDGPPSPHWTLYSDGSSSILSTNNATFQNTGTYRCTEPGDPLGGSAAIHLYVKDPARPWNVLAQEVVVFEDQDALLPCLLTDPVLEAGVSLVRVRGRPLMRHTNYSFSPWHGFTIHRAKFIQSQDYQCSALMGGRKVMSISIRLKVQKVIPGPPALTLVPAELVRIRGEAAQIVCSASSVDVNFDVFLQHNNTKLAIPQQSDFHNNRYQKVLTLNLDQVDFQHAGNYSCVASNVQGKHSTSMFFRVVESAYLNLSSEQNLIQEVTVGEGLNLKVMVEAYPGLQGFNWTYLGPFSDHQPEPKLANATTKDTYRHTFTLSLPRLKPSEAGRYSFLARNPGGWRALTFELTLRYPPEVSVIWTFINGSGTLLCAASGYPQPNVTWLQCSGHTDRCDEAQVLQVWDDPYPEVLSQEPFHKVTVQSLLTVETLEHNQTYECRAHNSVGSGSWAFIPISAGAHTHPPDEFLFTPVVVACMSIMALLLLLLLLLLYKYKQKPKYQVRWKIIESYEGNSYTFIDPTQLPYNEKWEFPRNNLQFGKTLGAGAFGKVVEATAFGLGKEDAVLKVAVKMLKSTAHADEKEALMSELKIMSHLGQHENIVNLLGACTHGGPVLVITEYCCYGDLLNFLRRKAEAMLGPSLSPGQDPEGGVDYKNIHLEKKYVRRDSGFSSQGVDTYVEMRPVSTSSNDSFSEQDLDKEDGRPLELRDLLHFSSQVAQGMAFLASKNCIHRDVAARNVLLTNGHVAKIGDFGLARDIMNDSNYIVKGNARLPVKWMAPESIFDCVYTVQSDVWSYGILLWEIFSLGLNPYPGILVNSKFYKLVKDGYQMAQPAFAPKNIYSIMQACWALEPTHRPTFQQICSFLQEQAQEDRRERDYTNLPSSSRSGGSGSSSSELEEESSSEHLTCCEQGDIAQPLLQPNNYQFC
Method: (§1) In vitro profiling of the 121-recombinant kinase panel was performed at Eurofins UK Ltd (Dundee, UK). In brief, recombinant kinases were incubated within an appropriate buffer containing peptide substrate and radiolabelled γ-^33P-ATP together with the presence or absence of the required compound concentration. The reaction was initiated by adding ATP/Mg^2+ mix. After incubation for 40 minutes at room temperature, the reaction was stopped by adding 3% phosphoric acid solution. A portion of the reaction mix was spotted onto P30 filtermat to trap peptide and washed three times for 5 minutes with phosphoric acid to remove non-specific γ-^33P-ATP. The substrate phosphorylation was then measured by scintillation counting, which determined the level of kinase activity inhibition compared to control reactions. Percentage inhibition data for each kinase was mapped to the kinome tree (www.kinhub.org).

Lck(h) activated = target: T2, Lck(h) activated (Homo sapiens, UniProt P06239); assay: Kinase panel assay (Eurofins); assay type: biochemical
T2 construct: purchased Eurofins UK Ltd (Dundee, UK)
T2 sequence (P06239 whole entry): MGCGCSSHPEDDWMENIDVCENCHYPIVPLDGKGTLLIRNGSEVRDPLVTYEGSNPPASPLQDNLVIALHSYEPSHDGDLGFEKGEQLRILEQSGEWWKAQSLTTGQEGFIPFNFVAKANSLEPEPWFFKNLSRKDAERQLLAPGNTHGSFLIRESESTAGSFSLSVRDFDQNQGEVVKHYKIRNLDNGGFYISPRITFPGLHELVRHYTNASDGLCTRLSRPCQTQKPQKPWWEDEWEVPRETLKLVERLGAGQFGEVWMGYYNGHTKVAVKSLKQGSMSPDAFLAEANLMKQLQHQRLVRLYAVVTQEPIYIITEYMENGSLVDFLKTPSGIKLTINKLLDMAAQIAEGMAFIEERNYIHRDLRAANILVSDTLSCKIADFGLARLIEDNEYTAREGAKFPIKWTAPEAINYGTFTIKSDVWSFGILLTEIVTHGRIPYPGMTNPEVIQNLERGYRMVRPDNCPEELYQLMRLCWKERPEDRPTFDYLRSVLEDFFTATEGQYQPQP
Method: as §1

Lck(h) = target: T3, Lck(h) (Homo sapiens, UniProt P06239); assay: Kinase panel assay (Eurofins); assay type: biochemical
T3 construct: purchased Eurofins UK Ltd (Dundee, UK)
Method: as §1

c-RAF(h) = target: T4, c-RAF(h) (Homo sapiens, UniProt P04049); assay: Kinase panel assay (Eurofins); assay type: biochemical
T4 construct: purchased Eurofins UK Ltd (Dundee, UK)
T4 sequence (P04049 whole entry): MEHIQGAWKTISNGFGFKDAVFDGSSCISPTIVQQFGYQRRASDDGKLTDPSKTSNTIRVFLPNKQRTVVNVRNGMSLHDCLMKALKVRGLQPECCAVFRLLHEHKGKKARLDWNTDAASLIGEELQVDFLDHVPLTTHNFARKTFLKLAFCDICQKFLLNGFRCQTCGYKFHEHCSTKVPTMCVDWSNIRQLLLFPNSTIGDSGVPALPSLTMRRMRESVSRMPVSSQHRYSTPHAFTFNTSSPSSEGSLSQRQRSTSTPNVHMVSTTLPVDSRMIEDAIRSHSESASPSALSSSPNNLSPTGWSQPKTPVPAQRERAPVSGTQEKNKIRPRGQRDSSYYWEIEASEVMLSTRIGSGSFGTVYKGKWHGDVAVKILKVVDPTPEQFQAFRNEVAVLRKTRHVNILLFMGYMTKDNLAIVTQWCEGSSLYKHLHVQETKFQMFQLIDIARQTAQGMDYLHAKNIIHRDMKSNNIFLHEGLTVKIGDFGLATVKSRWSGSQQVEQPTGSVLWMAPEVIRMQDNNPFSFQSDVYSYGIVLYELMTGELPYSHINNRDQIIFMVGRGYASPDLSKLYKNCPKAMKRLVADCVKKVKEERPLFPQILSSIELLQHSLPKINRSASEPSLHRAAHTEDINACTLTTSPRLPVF
Method: as §1

HER2(h) = target: T5, HER2(h) (Homo sapiens, UniProt P04626); assay: Kinase panel assay (Eurofins); assay type: biochemical
T5 construct: purchased Eurofins UK Ltd (Dundee, UK)
Method: as §1

ErbB4(h) = target: T6, ErbB4(h) (Homo sapiens, UniProt Q15303); assay: Kinase panel assay (Eurofins); assay type: biochemical
T6 construct: purchased Eurofins UK Ltd (Dundee, UK)
Method: as §1

TrkA(h) = target: T7, TrkA(h) (Homo sapiens, UniProt P04629); assay: Kinase panel assay (Eurofins); assay type: biochemical
T7 construct: purchased Eurofins UK Ltd (Dundee, UK)
T7 sequence (P04629 33-796): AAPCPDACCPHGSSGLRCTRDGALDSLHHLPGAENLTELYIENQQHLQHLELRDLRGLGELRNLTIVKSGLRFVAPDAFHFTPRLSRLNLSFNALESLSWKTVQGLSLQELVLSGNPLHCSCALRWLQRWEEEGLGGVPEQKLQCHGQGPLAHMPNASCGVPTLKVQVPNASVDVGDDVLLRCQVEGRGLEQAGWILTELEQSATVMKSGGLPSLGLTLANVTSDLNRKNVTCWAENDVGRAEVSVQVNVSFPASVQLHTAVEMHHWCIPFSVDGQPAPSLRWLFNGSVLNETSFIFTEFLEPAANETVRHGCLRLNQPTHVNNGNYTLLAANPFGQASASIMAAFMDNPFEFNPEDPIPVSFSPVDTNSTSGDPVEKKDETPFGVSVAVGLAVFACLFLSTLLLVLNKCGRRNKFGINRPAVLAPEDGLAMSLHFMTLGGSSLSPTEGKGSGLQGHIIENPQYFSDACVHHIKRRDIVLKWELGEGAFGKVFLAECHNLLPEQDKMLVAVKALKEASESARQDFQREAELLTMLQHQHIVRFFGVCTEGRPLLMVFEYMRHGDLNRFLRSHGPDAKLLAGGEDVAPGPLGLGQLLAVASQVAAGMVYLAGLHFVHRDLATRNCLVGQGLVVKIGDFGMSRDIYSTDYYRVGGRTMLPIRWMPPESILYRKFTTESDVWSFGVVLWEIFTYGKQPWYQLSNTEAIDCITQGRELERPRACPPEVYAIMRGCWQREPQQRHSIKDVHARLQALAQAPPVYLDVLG
Method: as §1

Lyn(h) = target: T8, Lyn(h) (Homo sapiens, UniProt P07948); assay: Kinase panel assay (Eurofins); assay type: biochemical
T8 construct: purchased Eurofins UK Ltd (Dundee, UK)
T8 sequence (P07948 whole entry): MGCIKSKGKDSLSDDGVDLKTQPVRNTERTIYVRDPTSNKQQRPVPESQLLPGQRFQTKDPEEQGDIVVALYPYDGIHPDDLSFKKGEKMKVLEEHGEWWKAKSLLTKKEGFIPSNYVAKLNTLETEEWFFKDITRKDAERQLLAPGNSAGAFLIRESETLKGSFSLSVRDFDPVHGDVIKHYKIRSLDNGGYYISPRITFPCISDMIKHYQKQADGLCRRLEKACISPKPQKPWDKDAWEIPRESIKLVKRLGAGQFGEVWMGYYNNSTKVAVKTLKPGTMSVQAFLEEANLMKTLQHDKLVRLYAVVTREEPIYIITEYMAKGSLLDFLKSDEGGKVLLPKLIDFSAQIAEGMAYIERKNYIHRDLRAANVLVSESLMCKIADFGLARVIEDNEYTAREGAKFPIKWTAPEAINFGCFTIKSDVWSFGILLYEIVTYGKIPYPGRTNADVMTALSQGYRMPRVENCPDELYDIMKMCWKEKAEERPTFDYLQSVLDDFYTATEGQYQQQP
Method: as §1

EGFR(T790M,L858R)(h) = target: T9, EGFR(T790M,L858R)(h) (Homo sapiens, UniProt P00533, L858R/T790M); assay: Kinase panel assay (Eurofins); assay type: biochemical
T9 construct: purchased Eurofins UK Ltd (Dundee, UK)
T9 sequence (P00533 25-1210 T790M/L858R): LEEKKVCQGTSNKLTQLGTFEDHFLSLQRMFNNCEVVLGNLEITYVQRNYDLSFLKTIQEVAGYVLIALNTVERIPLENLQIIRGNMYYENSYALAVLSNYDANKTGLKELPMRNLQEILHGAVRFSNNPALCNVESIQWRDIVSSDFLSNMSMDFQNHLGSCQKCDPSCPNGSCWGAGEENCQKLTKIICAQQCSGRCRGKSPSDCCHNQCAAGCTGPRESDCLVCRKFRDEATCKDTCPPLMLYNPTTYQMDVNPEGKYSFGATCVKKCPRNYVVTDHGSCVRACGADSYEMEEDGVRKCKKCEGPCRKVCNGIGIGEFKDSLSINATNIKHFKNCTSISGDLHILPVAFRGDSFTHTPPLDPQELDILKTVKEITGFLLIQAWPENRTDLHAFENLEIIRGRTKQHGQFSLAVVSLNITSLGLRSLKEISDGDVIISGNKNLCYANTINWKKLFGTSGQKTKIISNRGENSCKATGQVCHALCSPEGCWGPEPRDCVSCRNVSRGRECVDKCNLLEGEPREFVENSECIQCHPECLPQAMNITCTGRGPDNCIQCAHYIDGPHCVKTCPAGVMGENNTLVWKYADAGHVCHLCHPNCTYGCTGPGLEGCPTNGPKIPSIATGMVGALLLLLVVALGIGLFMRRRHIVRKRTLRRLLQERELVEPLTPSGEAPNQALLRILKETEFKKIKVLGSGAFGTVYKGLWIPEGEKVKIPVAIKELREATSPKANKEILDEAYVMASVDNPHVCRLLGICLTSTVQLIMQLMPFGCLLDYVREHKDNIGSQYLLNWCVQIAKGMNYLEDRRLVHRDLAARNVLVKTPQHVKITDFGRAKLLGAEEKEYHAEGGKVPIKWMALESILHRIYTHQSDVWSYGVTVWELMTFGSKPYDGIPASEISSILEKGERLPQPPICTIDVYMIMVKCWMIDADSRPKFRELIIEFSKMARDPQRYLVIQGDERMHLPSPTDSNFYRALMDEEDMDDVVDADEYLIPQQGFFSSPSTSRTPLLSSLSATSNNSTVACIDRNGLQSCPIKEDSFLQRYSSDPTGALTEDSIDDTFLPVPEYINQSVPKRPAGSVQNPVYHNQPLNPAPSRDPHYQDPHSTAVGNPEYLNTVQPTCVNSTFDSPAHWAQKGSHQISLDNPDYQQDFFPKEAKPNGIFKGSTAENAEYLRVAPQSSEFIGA
Method: as §1

Met(h) = target: T10, Met(h) (Homo sapiens, UniProt P08581); assay: Kinase panel assay (Eurofins); assay type: biochemical
T10 construct: purchased Eurofins UK Ltd (Dundee, UK)
Method: as §1

Blk(h) = target: T11, Blk(h) (Homo sapiens, UniProt P51451); assay: Kinase panel assay (Eurofins); assay type: biochemical
T11 construct: purchased Eurofins UK Ltd (Dundee, UK)
T11 sequence (P51451 whole entry): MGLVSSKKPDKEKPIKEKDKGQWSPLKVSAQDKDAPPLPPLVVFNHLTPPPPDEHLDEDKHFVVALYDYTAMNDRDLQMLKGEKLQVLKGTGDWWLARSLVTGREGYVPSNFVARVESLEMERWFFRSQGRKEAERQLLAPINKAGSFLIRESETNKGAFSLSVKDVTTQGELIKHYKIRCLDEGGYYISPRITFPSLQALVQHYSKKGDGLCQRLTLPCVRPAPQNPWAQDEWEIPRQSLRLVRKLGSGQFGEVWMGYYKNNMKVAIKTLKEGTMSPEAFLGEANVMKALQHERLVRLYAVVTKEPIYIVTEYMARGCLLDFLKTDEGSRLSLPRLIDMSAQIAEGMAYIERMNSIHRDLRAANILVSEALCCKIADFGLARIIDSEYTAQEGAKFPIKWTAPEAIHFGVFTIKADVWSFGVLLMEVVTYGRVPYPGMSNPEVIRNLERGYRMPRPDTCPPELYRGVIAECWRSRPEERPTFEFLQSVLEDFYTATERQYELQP
Method: as §1

EGFR(h) = target: T12, EGFR(h) (Homo sapiens, UniProt P00533); assay: Kinase panel assay (Eurofins); assay type: biochemical
T12 construct: purchased Eurofins UK Ltd (Dundee, UK)
Method: as §1

[2] = In vivo CNS-PK study in rat; conditions: female, Wistar Han, brain and CSF (relative to unbound plasma/blood), single PO dose of DZD1516 30 mg/kg
Method: The ability of DZD1516 and DZ2678 to cross the BBB in female Wistar Han rat and female Cynomolgus monkey was studied by assessing the free brain-to-plasma ratio (Kp,uu,brain) and CSF-to-free plasma ratio (Kp,uu,CSF). Total brain-to-blood ratio (Kp,brain) and CSF-to-blood ratio (Kp,CSF) were measured from six time points after oral administration. Free fractions of DZD1516 and DZ2678 in the biological matrix were determined by in vitro plasma and brain binding assay.
Kp,brain= AUCbrain/AUCblood. Kp,CSF was the average of the CSF-to-blood ratios at the evaluated time points. Kp,uu,brain= Kp,brain× fu,brain/fu,blood; Kpuu,CSF= Kp,CSF/fu,blood.
In total, twenty-one female Wistar Han rats were administered with a single PO dose of DZD1516 at 30 mg/kg. The PO dosing formulation was a suspension in 0.5% HPMC E5 in water (w/v). Plasma, brain, and CSF samples were collected at 0.5, 1, 2, 4, 8, 24, and 30 hrs post-dose. The concentrations of DZD1516 and metabolite DZ2678 in plasma, brain, and CSF samples from the rats, as well as in plasma and CSF samples from the monkeys, were determined by the validated LC-MS/MS method.

[3] = system: BT474C1-Luci Mono1 LM xenograft; assay: LM (leptomeningeal metastasis) BT474C1-Luci Mono1 xenograft model; assay type: in vivo, nude mice
Method: The LM model was generated by implanting 10 µl of cell suspension containing 1 × 10^4 BT474C1-Luci Mono1 cells through cisterna magna into each mouse under anaesthesia following similar procedures as described in the literature (31). 17β- ESTRADIOL (90-day release 0.36 mg/pellet) were injected subcutaneously 24 hrs before cell inoculation. Under anaesthesia, mice were placed in the prone position with their neck draped over a cylinder. The head was immobilized with the thumb and mid-finger, with the index finger palpating the space between the occiput and C1. BT474c1-Luci Mono1 cell suspension at 10 µl containing 0.01 million cells were injected intracisternally. When the bioluminescent signal reached > 5 × 10^6 photon/s, animals were randomized for treatment. […]
In both BM and LM models, the day of randomization was defined as Day 0 and the treatment was started one day after randomization. The bioluminescence signals and body weight of the mice were measured once weekly. Relative bioluminescence intensity on a specific day was calculated by dividing the bioluminescence intensity on that day by the bioluminescence intensity on Day 0. The tumour growth inhibition (TGI) was calculated by formula: TGI (%) = (1-(relative bioluminescence intensity of treated group)/(relative bioluminescence intensity of control group)) x 100.Establishment of SC model

Compound: COc1cc(O[C@H]2CCN(C)CC2(F)F)c2c(Nc3ccc(Oc4ccn5ncnc5c4)c(C)c3)ncnc2c1 [DZD1516]
- antitumor efficacy ([1]; 100 mg/kg or 150 mg/kg twice daily): tumor remission was achieved
- antitumor efficacy ([1]; monotherapy 50 mg/kg (data not shown)): tumor shrinkage or complete tumor remission
- efflux ratio at 1 µM (P-gp-BCRP; human, not told, 1 µM): 1.8
- active efflux via P-gp and BCRP (P-gp-BCRP; in vitro): do not undergo active efflux via P-gp and BCRP in vitro
- IC50 (Fms(h)): 1070 nM
- IC50 (Lck(h) activated): 180 nM
- IC50 (Lck(h)): 433 nM
- IC50 (c-RAF(h)): 1040 nM
- IC50 (HER2(h)): 16 nM
- IC50 (ErbB4(h)): 52 nM
- IC50 (TrkA(h)): 1290 nM
- IC50 (Lyn(h)): 2300 nM
- IC50 (EGFR(T790M,L858R)(h)): 244 nM
- IC50 (Met(h)): 1090 nM
- IC50 (Blk(h)): 2670 nM
- IC50 (EGFR(h)): 92 nM
- Kp uu [2]: 0.57 to 0.87
- TGI ([3]; 100 mg/kg twice daily): 57%
- TGI ([3]; 150 mg/kg twice daily): 81%
